Data published in patent US20250092065A1, “2-(INDAZOL-5-YL)-6-(PIPERIDIN-4-YL)-1,7-NAPHTHYRIDINE DERIVATIVES AND RELATED COMPOUNDS AS MODULATORS FOR SPLICING NUCLEIC ACIDS AND FOR THE TREATMENT OF PROLIFERATIVE DISEASES” (REMIX THERAPEUTICS INC., priority 2022, published 2025).
Like-named read-outs stand apart in the source and are kept apart here.

Assays:
Format in all cases: cell-based, human
HTT mRNA = assay: RT-qPCR splicing assay, HTT mRNA canonical (CJ) and alternative (AJ) junction; conditions: Homo sapiens; for AC50: HTT alternative junction mRNA, read-out: HTT AJ (increase in AJ mRNA, AC50)
How it was run: (§1)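 Both isoforms, CJ and AJ, read by qPCR from crude lysates of treated A673 or K562 cells; 24 h, 37 °C, maximum 10 uM. Normalization: housekeeper ΔCt, then DMSO ΔΔCt.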

MYB mRNA = assay: RT-qPCR splicing assay, MYB mRNA canonical (CJ) and alternative (AJ) junction; conditions: Homo sapiens; for AC50: MYB alternative junction mRNA, read-out: MYB AJ (increase in AJ mRNA, AC50)
How it was run: as §1

MYB = assay: HiBiT protein abundance assay, MYB (K562 HiBiT knock-in); conditions: HiBiT knock-in K562 cells, 24 hours, top dose 10 μM
How it was run: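 Tagged-protein levels were measured as HiBiT/LgBiT luminescence in lysed K562 knock-in cells exposed to serially diluted compound (up to 10 μM final) for 24 hours. A four-parameter logistic regression of control-normalized signal yielded the IC50.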

SMN2 mRNA = assay: RT-qPCR splicing assay, SMN2 mRNA; conditions: Homo sapiens, canonical junction qPCR panel, Table 4; read-out: SMN2 IC50 (decrease in CJ mRNA levels)
How it was run: as §1

[1] = HTT canonical junction mRNA, RT-qPCR, read-out: HTT CJ (decrease in CJ mRNA levels, IC50)
[2] = canonical junction qPCR panel, Table 4, read-out: HTT IC50 (decrease in CJ mRNA levels)
[3] = MYB canonical junction mRNA, RT-qPCR, read-out: MYB CJ (decrease in CJ mRNA levels, IC50)
[4] = canonical junction qPCR panel, Table 4, read-out: MYB IC50 (decrease in CJ mRNA levels)

CNC(=O)c1nc(-c2cc(F)c3nc(C)cn3c2)nc2ccc(N3CCNCC3)cc12 [Compound 505, 2-{8-fluoro-2-methylimidazo[1,2-a]pyridin-6-yl}-N-methyl-6-(piperazin-1-yl) quinazoline-4-carboxamide]
AC50 (HTT mRNA; RT-qPCR): 100 to 1000 nM
IC50 (HTT mRNA; [1]): 100 to 1000 nM
IC50 (HTT mRNA; [2]): 100 to 1000 nM
AC50 (MYB mRNA; RT-qPCR): < 100 nM
IC50 (MYB mRNA; [3]): < 100 nM
IC50 (MYB mRNA; [4]): < 100 nM
IC50 (MYB): < 100 nM
IC50 (SMN2 mRNA): < 100 nM

CNC(=O)c1nc(-c2cc3cn(C)nc3c(F)c2O)nc2ccc(N3CCNCC3)cc12 [Compound 506, 2-(7-fluoro-6-hydroxy-2-methylindazol-5-yl)-N-methyl-6-(piperazin-1-yl)quinazoline-4-carboxamide]
AC50 (HTT mRNA; RT-qPCR): 100 to 1000 nM
IC50 (HTT mRNA; [1]): < 100 nM
IC50 (HTT mRNA; [2]): < 100 nM
AC50 (MYB mRNA; RT-qPCR): < 100 nM
IC50 (MYB mRNA; [3]): < 100 nM
IC50 (MYB mRNA; [4]): < 100 nM
IC50 (MYB): < 100 nM
IC50 (SMN2 mRNA): < 100 nM

CNC(=O)c1nc(-c2cc3cn(C)nc3c(C)c2O)nc2ccc(N3CCC(N(C)C)CC3)cc12 [Compound 507, 6-[4-(dimethylamino)piperidin-1-yl]-2-(6-hydroxy-2,7-dimethylindazol-5-yl)-N-methylquinazoline-4-carboxamide]
AC50 (HTT mRNA; RT-qPCR): 1000 to 10000 nM
IC50 (HTT mRNA; [1]): 100 to 1000 nM
IC50 (HTT mRNA; [2]): 100 to 1000 nM
AC50 (MYB mRNA; RT-qPCR): < 100 nM
IC50 (MYB mRNA; [3]): < 100 nM
IC50 (MYB mRNA; [4]): < 100 nM
IC50 (MYB): < 100 nM
IC50 (SMN2 mRNA): < 100 nM

CNc1nc(-c2cc3cn(C)nc3c(C)c2O)nc2ccc(N3CCNCC3)cc12 [Compound 508, 2,7-dimethyl-5-[4-(methylamino)-6-(piperazin-1-yl)quinazolin-2-yl]indazol-6-ol]
AC50 (HTT mRNA; RT-qPCR): > 10000 nM
IC50 (HTT mRNA; [1]): > 10000 nM
IC50 (HTT mRNA; [2]): > 10000 nM
AC50 (MYB mRNA; RT-qPCR): 1000 to 10000 nM
IC50 (MYB mRNA; [3]): 1000 to 10000 nM
IC50 (MYB mRNA; [4]): 1000 to 10000 nM
IC50 (MYB): 1000 to 10000 nM
IC50 (SMN2 mRNA): 100 to 1000 nM

Cc1c(O)c(-c2nc(N(C)C)c3cc(N4CCNCC4)ccc3n2)cc2cn(C)nc12 [Compound 509, 5-[4-(dimethylamino)-6-(piperazin-1-yl)quinazolin-2-yl]-2,7-dimethylindazol-6-ol]
AC50 (HTT mRNA; RT-qPCR): > 10000 nM
IC50 (HTT mRNA; [1]): > 10000 nM
IC50 (HTT mRNA; [2]): > 10000 nM
AC50 (MYB mRNA; RT-qPCR): > 10000 nM
IC50 (MYB mRNA; [3]): > 10000 nM
IC50 (MYB mRNA; [4]): > 10000 nM
IC50 (MYB): 1000 to 10000 nM
IC50 (SMN2 mRNA): 100 to 1000 nM

CNC(=O)c1nc(-c2cc3cn(C)nc3c(C)c2O)nc2ccc(N3CCC(NC)C3)cc12 (centres unmarked) [Compound 510, 2-(6-hydroxy-2,7-dimethylindazol-5-yl)-N-methyl-6-[3-(methylamino)pyrrolidin-1-yl]quinazoline-4-carboxamide]
AC50 (HTT mRNA; RT-qPCR): 100 to 1000 nM
IC50 (HTT mRNA; [1]): < 100 nM
IC50 (HTT mRNA; [2]): < 100 nM
AC50 (MYB mRNA; RT-qPCR): < 100 nM
IC50 (MYB mRNA; [3]): < 100 nM
IC50 (MYB mRNA; [4]): < 100 nM
IC50 (MYB): < 100 nM
IC50 (SMN2 mRNA): < 100 nM

CNC(=O)c1nc(-c2cc3cn(C)nc3c(C)c2O)nc2ccc(N3C[C@@H](C)N[C@@H](C)C3)cc12 [Compound 511, 6-[(3R,5S)-3,5-dimethylpiperazin-1-yl]-2-(6-hydroxy-2,7-dimethylindazol-5-yl)-N-methylquinazoline-4-carboxamide]
AC50 (HTT mRNA; RT-qPCR): 100 to 1000 nM
IC50 (HTT mRNA; [1]): 100 to 1000 nM
IC50 (HTT mRNA; [2]): 100 to 1000 nM
AC50 (MYB mRNA; RT-qPCR): < 100 nM
IC50 (MYB mRNA; [3]): < 100 nM
IC50 (MYB mRNA; [4]): < 100 nM
IC50 (MYB): < 100 nM
IC50 (SMN2 mRNA): < 100 nM

CC(=O)c1nc(-c2cc3cn(C)nc3c(F)c2O)nc2ccc(N3CCNCC3)cc12 [Compound 513, 1-(2-(7-fluoro-6-hydroxy-2-methyl-2H-indazol-5-yl)-6-(piperazin-1-yl)quinazolin-4-yl)ethan-1-one 2,2,2-trifluoroacetate]
AC50 (HTT mRNA; RT-qPCR): 1000 to 10000 nM
IC50 (HTT mRNA; [1]): 1000 to 10000 nM
IC50 (HTT mRNA; [2]): 1000 to 10000 nM
AC50 (MYB mRNA; RT-qPCR): < 100 nM
IC50 (MYB mRNA; [3]): < 100 nM
IC50 (MYB mRNA; [4]): < 100 nM
IC50 (MYB): < 100 nM
IC50 (SMN2 mRNA): < 100 nM

Cn1cc2cc(-c3nc(C#N)c4cc(N5CCNCC5)ccc4n3)c(O)c(F)c2n1 [Compound 514, 2-(7-fluoro-6-hydroxy-2-methylindazol-5-yl)-6-(piperazin-1-yl) quinazoline-4-carbonitrile; trifluoroacetic acid]
AC50 (HTT mRNA; RT-qPCR): 1000 to 10000 nM
IC50 (HTT mRNA; [1]): 100 to 1000 nM
IC50 (HTT mRNA; [2]): 100 to 1000 nM
AC50 (MYB mRNA; RT-qPCR): < 100 nM
IC50 (MYB mRNA; [3]): < 100 nM
IC50 (MYB mRNA; [4]): < 100 nM
IC50 (MYB): < 100 nM
IC50 (SMN2 mRNA): < 100 nM

Cc1c(O)c(-c2ccc3cc(N4CCNCC4)cc(F)c3n2)cc2cn(C)nc12 [Compound 515, 5-[8-fluoro-6-(piperazin-1-yl)quinolin-2-yl]-2,7-dimethylindazol-6-ol]
AC50 (HTT mRNA; RT-qPCR): < 100 nM
IC50 (HTT mRNA; [1]): < 100 nM
IC50 (HTT mRNA; [2]): < 100 nM
AC50 (MYB mRNA; RT-qPCR): < 100 nM
IC50 (MYB mRNA; [3]): < 100 nM
IC50 (MYB mRNA; [4]): < 100 nM
IC50 (MYB): < 100 nM
IC50 (SMN2 mRNA): < 100 nM

Cn1cc2cc(-c3ccc4cc(N5CCNCC5)cc(F)c4n3)cc(F)c2n1 [Compound 516, 8-fluoro-2-(7-fluoro-2-methylindazol-5-yl)-6-(piperazin-1-yl)quinoline]
AC50 (HTT mRNA; RT-qPCR): 100 to 1000 nM
IC50 (HTT mRNA; [1]): 100 to 1000 nM
IC50 (HTT mRNA; [2]): 100 to 1000 nM
AC50 (MYB mRNA; RT-qPCR): 100 to 1000 nM
IC50 (MYB mRNA; [3]): < 100 nM
IC50 (MYB mRNA; [4]): < 100 nM
IC50 (MYB): < 100 nM
IC50 (SMN2 mRNA): < 100 nM

Cc1cn2cc(-c3ccc4cc(N5CCNCC5)cc(F)c4n3)cc(F)c2n1 [Compound 517, 8-fluoro-2-{8-fluoro-2-methylimidazo[1,2-a]pyridin-6-yl}-6-(piperazin-1-yl)quinoline]
AC50 (HTT mRNA; RT-qPCR): 100 to 1000 nM
IC50 (HTT mRNA; [1]): 100 to 1000 nM
IC50 (HTT mRNA; [2]): 100 to 1000 nM
AC50 (MYB mRNA; RT-qPCR): < 100 nM
IC50 (MYB mRNA; [3]): < 100 nM
IC50 (MYB mRNA; [4]): < 100 nM
IC50 (MYB): < 100 nM
IC50 (SMN2 mRNA): < 100 nM

Cn1cc2cc(-c3nc(C4CC4)c4cc(N5CCNCC5)ccc4n3)c(O)c(F)c2n1 [Compound 518, 5-[4-cyclopropyl-6-(piperazin-1-yl)quinazolin-2-yl]-7-fluoro-2-methylindazol-6-ol; trifluoroacetic acid]
AC50 (HTT mRNA; RT-qPCR): 1000 to 10000 nM
IC50 (HTT mRNA; [1]): 1000 to 10000 nM
IC50 (HTT mRNA; [2]): 1000 to 10000 nM
AC50 (MYB mRNA; RT-qPCR): 100 to 1000 nM
IC50 (MYB mRNA; [3]): < 100 nM
IC50 (MYB mRNA; [4]): < 100 nM
IC50 (MYB): < 100 nM
IC50 (SMN2 mRNA): < 100 nM

Cc1c(O)c(-c2nc(-c3cncs3)c3cc(N4CCNCC4)ccc3n2)cc2cn(C)nc12 [Compound 519, 2,7-dimethyl-5-[6-(piperazin-1-yl)-4-(1,3-thiazol-5-yl)quinazolin-2-yl]indazol-6-ol]
AC50 (HTT mRNA; RT-qPCR): > 10000 nM
IC50 (HTT mRNA; [1]): > 10000 nM
IC50 (HTT mRNA; [2]): > 10000 nM
AC50 (MYB mRNA; RT-qPCR): 100 to 1000 nM
IC50 (MYB mRNA; [3]): 100 to 1000 nM
IC50 (MYB mRNA; [4]): 100 to 1000 nM
IC50 (MYB): 100 to 1000 nM
IC50 (SMN2 mRNA): < 100 nM

Cc1c(O)c(-c2ncc3cc(N4CCNCC4)ccc3n2)cc2cn(C)nc12 [Compound 520, 2,7-dimethyl-5-[6-(piperazin-1-yl)quinazolin-2-yl]indazol-6-ol]
AC50 (HTT mRNA; RT-qPCR): 100 to 1000 nM
IC50 (HTT mRNA; [1]): 100 to 1000 nM
IC50 (HTT mRNA; [2]): 100 to 1000 nM
AC50 (MYB mRNA; RT-qPCR): < 100 nM
IC50 (MYB mRNA; [3]): 100 to 1000 nM
IC50 (MYB mRNA; [4]): 100 to 1000 nM
IC50 (MYB): < 100 nM
IC50 (SMN2 mRNA): < 100 nM

Cc1c(O)c(-c2nc(-c3nnc[nH]3)c3cc(N4CCNCC4)ccc3n2)cc2cn(C)nc12 [Compound 522, 2,7-dimethyl-5-[6-(piperazin-1-yl)-4-(4H-1,2,4-triazol-3-yl)quinazolin-2-yl]indazol-6-ol; bis(trifluoroacetic acid)]
AC50 (HTT mRNA; RT-qPCR): > 10000 nM
IC50 (HTT mRNA; [1]): 1000 to 10000 nM
IC50 (HTT mRNA; [2]): 1000 to 10000 nM
AC50 (MYB mRNA; RT-qPCR): 1000 to 10000 nM
IC50 (MYB mRNA; [3]): 1000 to 10000 nM
IC50 (MYB mRNA; [4]): 1000 to 10000 nM
IC50 (MYB): 100 to 1000 nM
IC50 (SMN2 mRNA): < 100 nM
